Experimental data reported in BindingDB's records for doi:10.1021/jm00375a008 (1984).

Target: Progesterone receptor (Gallus gallus) (UniProt P07812)
Assay: Equilibrium dissociation constant for chick oviduct progesterone receptor

Sequence of Progesterone receptor (Gallus gallus) (P07812 whole entry, looked up): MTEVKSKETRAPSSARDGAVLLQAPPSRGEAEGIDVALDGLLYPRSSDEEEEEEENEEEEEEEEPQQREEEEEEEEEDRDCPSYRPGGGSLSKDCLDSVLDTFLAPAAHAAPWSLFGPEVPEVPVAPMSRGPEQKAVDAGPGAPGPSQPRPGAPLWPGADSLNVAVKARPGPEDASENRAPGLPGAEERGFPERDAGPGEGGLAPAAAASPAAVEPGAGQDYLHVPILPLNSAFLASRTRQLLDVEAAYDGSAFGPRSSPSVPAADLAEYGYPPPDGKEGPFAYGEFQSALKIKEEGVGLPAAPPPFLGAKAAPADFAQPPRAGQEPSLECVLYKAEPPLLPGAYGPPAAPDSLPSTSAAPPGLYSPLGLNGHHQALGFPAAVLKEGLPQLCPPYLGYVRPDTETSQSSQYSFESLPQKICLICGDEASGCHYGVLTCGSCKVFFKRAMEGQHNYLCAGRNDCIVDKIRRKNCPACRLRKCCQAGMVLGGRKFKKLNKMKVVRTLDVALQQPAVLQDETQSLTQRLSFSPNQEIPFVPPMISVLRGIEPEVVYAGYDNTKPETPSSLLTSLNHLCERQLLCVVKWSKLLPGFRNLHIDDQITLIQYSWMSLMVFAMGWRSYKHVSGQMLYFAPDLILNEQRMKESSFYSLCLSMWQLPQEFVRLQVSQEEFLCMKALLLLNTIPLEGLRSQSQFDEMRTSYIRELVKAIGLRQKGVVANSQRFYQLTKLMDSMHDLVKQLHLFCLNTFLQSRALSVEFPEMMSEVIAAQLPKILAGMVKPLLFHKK

Question: `C#C[C@@H](O)C12CCCC1C1CCC3=CC(=O)CC[C@@H]3C1CC2` (stereo partly specified) was tested. Which Kd did it give?
Answer: The Kd was 160 nM.
